Laboratory results published in ChEMBL document CHEMBL1201862, “PubChem BioAssay data set” (2004).
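How tested: cells in 96-well plates exposed to compound for 48 hours at five concentrations. Here, GI50 denotes the concentration required for 50% inhibition of growth.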 Activity calls are given as the source filed them. Rule as the data show it: active = GI50 up to about 1.1 µM and inactive = higher.

Columns and labels:
Experiment in all cases: NCI tumour cell line growth inhibition, 48 h
DMS-114 = test system: DMS-114
DU-145 = test system: DU-145
BT-549 = test system: BT-549
XF498 = test system: XF498
DMS-273 = test system: DMS-273
HOP-18 = test system: HOP-18
Hs-578T = test system: Hs-578T
T47D = test system: T47D

Measured: GI50

CN/N=C(/Cc1occc(=O)c1O)C(=O)Nc1ccc(C)c(C)c1
inactive: DMS-114 > 100 µM

COC(=O)CC1CN(C(=O)OCc2ccccc2)C(C)(C)O1 (stereo unspecified)
inactive: DU-145 > 100 µM | BT-549 4.97 µM

CN(C)c1nc(N(C)C)nc(N(C)CN(C)c2ccc(Cl)cc2)n1
inactive: XF498 > 100 µM | DMS-114 > 100 µM | DMS-273 > 100 µM

CN(C)CCNc1c2ccccc2c2c3c(cccc13)C(=O)N(CCN(C)C)C2=O
active: XF498 0.267 µM | HOP-18 0.188 µM | DMS-273 0.122 µM

CC(=O)NCCC1CN(C(=O)/C=C\C#C[Si](C)(C)C)c2ccccc21 (stereo unspecified)
inactive: DU-145 23.3 µM | Hs-578T 33 µM | T47D 23.3 µM | BT-549 21 µM

O=c1[nH]c2ccsc2c(=O)n1COCc1ccccc1
inactive: DU-145 > 100 µM | Hs-578T > 100 µM | BT-549 > 100 µM

CC1NC(=O)CC(c2ccccc2)N(N=O)C1c1ccccc1 (stereo unspecified)
inactive: XF498 25.8 µM | HOP-18 52.2 µM | DMS-273 26 µM

O=C1NC(=O)C2C(=O)NC(=O)C1C2(c1ccccc1)c1ccc(Cl)cc1 (stereo unspecified)
inactive: XF498 > 100 µM | DMS-273 > 100 µM

N[C@@H]1c2c(Br)sc(Br)c2[C@H](O)[C@@H]1O
inactive: DU-145 > 100 µM | Hs-578T > 100 µM | T47D > 100 µM | BT-549 > 100 µM

CNC(=O)OC(COC)CN1CCN(c2ccccc2C)CC1 (stereo unspecified)
inactive: DU-145 > 10 µM | Hs-578T > 10 µM | T47D > 10 µM

N#Cc1ccccc1NC(=O)C(=O)c1c(O)c2ccccc2oc1=O
inactive: Hs-578T > 100 µM | T47D > 100 µM | BT-549 > 100 µM

COc1ccc(C2SCC(=O)N2NC(=O)c2ccc(NC(C)=O)cc2)c(OC)c1 (stereo unspecified)
inactive: DU-145 > 100 µM | Hs-578T > 100 µM | T47D 93.3 µM | BT-549 > 100 µM

ClCCCN(CCCCl)c1ccc(/C=N/c2cccc(Cl)c2)cc1
inactive: DU-145 2.56 µM | Hs-578T 16.1 µM | T47D 7.11 µM

CN(C)CCNC(=O)c1cccc2c(NCC(=O)O)c3ccccc3nc12
inactive: DU-145 25.3 µM | Hs-578T 18.5 µM

CC(C)C[P+](c1ccccc1)(c1ccccc1)c1ccccc1
inactive: DU-145 6.95 µM | Hs-578T 11.2 µM | T47D 11.8 µM | BT-549 4.75 µM

CCOC(=O)c1nc2ccccc2nc1Oc1ccc(OC)cc1
inactive: DU-145 > 100 µM | Hs-578T > 100 µM | T47D > 100 µM | BT-549 > 100 µM

CCOC(=O)/C(=C\c1ccnc2ccccc12)P(=O)(OCC)OCC
inactive: DU-145 2.71 µM | Hs-578T 3.21 µM | T47D 3.18 µM | BT-549 2.16 µM

CCC1(C(=O)OC(C)(C)C)OC12C(C)CCCC2C (stereo unspecified)
inactive: DU-145 > 100 µM | Hs-578T 90.2 µM | T47D 32.9 µM | BT-549 > 100 µM

CC1=CC(=O)/C(=C/NC(=S)c2ccncc2)C(=O)O1
inactive: DU-145 > 100 µM | Hs-578T > 100 µM | BT-549 > 100 µM

C/C(=C\COc1ccc2ccc(=O)oc2c1)CCC(=O)C(C)(C)O
inactive: DU-145 32.1 µM | Hs-578T 26.4 µM | T47D 29.9 µM | BT-549 18.1 µM

CCOC(=O)Cc1csc2[n+]1C(=O)/C(=C/c1cccc(OC)c1O)S2
inactive: DU-145 73.3 µM | T47D 36.3 µM | BT-549 13.8 µM

CCOC(=O)C1=CC(C)(C(=O)OCC)Nc2c(nc(OC)[nH]c2=O)N1 (stereo unspecified)
inactive: DU-145 > 10 µM | Hs-578T > 10 µM | T47D > 10 µM

Cc1cc(S(=O)(=O)[N-]/C(=N/S(=O)(=O)c2ccc(Cl)cc2)[n+]2ccc(N(C)C)cc2)c(S)cc1Cl
inactive: DU-145 > 100 µM | Hs-578T 54.8 µM | T47D > 100 µM

CCOC(=O)C1=C(N)N(c2ccccc2)/C(=C(/C#N)c2nc3ccccc3[nH]2)S1
inactive: XF498 > 100 µM | DMS-273 > 100 µM

C=C1C(=O)C23C(O)CC4C5(C)CCCC4(C(O)OC5)C2C(OC(C)=O)CC1C3O (stereo unspecified)
inactive: HOP-18 16.7 µM | DMS-114 4.51 µM | DMS-273 17.9 µM

COc1ccc(CC2COc3cc(OC)cc(OC)c3C2=O)cc1 (stereo unspecified)
inactive: DU-145 21.8 µM | Hs-578T 17.5 µM | T47D 16.7 µM | BT-549 44.2 µM

CN(/N=C/c1ccc(OCc2cccc(COc3ccc(C=O)cc3)n2)cc1)c1cnn(-c2ccc(Cl)cc2Cl)c(=O)c1Cl
inactive: DU-145 > 100 µM | Hs-578T > 100 µM | T47D > 100 µM | BT-549 66.7 µM

COc1cc([N+](=O)[O-])c(S(=O)(=O)O)cc1-n1nc(-c2ccccc2)n[n+]1-c1cc(S(=O)(=O)[O-])c([N+](=O)[O-])cc1OC
inactive: DU-145 > 100 µM | Hs-578T > 100 µM | T47D > 100 µM

C#C/C=C\CCCC/C=C\C#CC#CCCCC#CC#C[C@H](COS(=O)(=O)O)OS(=O)(=O)O
inactive: DU-145 > 100 µM | Hs-578T > 100 µM | T47D > 100 µM | BT-549 > 100 µM

CS(=O)(=O)N1CC(CCl)c2ccc(O)cc21 (stereo unspecified)
inactive: DU-145 3.46 µM | Hs-578T 4.32 µM | T47D 7.4 µM | BT-549 2.02 µM
